We go through 4 compounds from patent publication US20220184235A1, “NEAR-INFRARED FLUORESCENT PROBES FOR MOLECULAR IMAGING OF BONE REPAIR” (Taipeibio Co., Ltd., priority 2020, published 2022).

Data set [1] is described as follows: NIR fluorescence emission spectra of the probes. Format: physicochemical. As to conditions: excitation of 777 nm. How it is done:
Triethylamine (65.3 μL, 0.467 mmol) and 3-mercaptopropionic acid (40.7 μL, 0.467 mmol) were added to a solution of IR-783 (250 mg, 0.33 mmol) in 6 mL of anhydrous dimethylformamide (“DMF”). The resulting green solution was stirred in the dark at room temperature. The conversion reaction of IR783 to CyTE777 was complete after 21 h, as monitored by high-performance liquid chromatography (“HPLC”). A green solid was isolated through precipitation with ether at 4° C. and was washed with 3 mL cold ether. The precipitate was dissolved in water and dried under vacuum.
The augmented fluorescence intensity indicated completed conjugation.
Pamidronate (“PAM”) was attached to the carboxylate surface of nanoAu to form nanoAu-Pam directly or using a zero-length crosslinking agent, i.e., 1-ethyl-3-[3-dimethyl-aminopropyl] carbodiimide hydrochloride (“EDC”). Briefly, equal volumes of nanoAu (40 mM), pamidronate (3 mM), and EDC (80 mM) were mixed at room temperature for 2 h. To concentrate the nanoAu-Pam, the reaction was loaded on a 30 kDa molecular sieve (Amicon) and centrifuged at 3000 rpm for 10 min. The solution was centrifuged twice and washed with phosphate-buffered saline (“PBS”) to remove any unbound reactants. […] The fluorescence intensity of excitation spectra was recorded using an Edinburgh FL 900 CDT Time-Resolved Fluorometer (Edinburgh Analytical Instruments, Livingston, UK).

Data set [2] relates to osteoblastic-induced MSCs (α5β1). The experiment in a line: Binding specificity of α5β1L-CyTE777 in osteoblastic-induced MSCs, confocal microscopy. Format: cell-based. As to conditions: osteoblastic-induced MSC. How it is done:
(§1) To determine the binding specificity of α5β1L-CyTE777, undifferentiated MSCs or osteoblastic-induced MSCs were cultured in 24-well plates in DMEM/LG supplemented with 10% FBS. α5β1L-CyTE777 was applied to the cultures to detect binding to α5β1 . Cultures incubated with α5β1L-CyTE777 were washed with PBS twice and analyzed by confocal microscopy after staining nuclei with diamidinophenylindole (“DAPI”).

For data set [3], the system named is undifferentiated MSCs. Kind of data set: Binding specificity of α5β1L-CyTE777 in undifferentiated MSCs, confocal microscopy. The format is cell-based. Conditions: undifferentiated MSC. The procedure: as §1
The conditions of data set [4]: statement on the purchased dye; cited from earlier work.
Data set [5] deals with osteoblastic-differentiated MSC culture. The experiment in a line: Calcein staining for calcium deposition in osteogenically induced MSC culture. Format: cell-based. As to conditions: MSC culture after 21 days of osteogenic induction. How it is done:
For osteogenic induction, MSCs were cultured in 24-well plates in DMEM/LG medium supplemented with 10% FBS, 100 units/mL penicillin, 100 μg/mL streptomycin, 50 μg/ml L-ascorbate-2-phosphate, 10^−7 M dexamethasone and 10 mM β-glycero-phosphate at 37° C., 5% CO2. Cells were also stained with calcein using a standard protocol to confirm calcium deposition in the culture. A 10x calcein/PBS staining solution was added to each well without medium change. The cells were incubated at 37° C., 5% CO2 overnight, washed twice with PBS, fixed with formaldehyde, and observed by fluorescence microscopy.

The test system of data set [6] is undifferentiated MSCs. The experiment in a line: Calcein staining of undifferentiated MSCs. The format is cell-based. How it is done:
Cells were also stained with calcein using a standard protocol to confirm calcium deposition in the culture. A 10x calcein/PBS staining solution was added to each well without medium change. The cells were incubated at 37° C., 5% CO2 overnight, washed twice with PBS, fixed with formaldehyde, and observed by fluorescence microscopy.

Bridges are numbered along the chain shown (N, C = ends). Where no end group is shown, it is not given here.

Turning to “α5β1L-CyTE777: CyTE777 conjugated to the N-terminal glycine NH2 of disulfide-cyclised peptide GGCRRETAWAC (SEQ ID NO: 1) (CyTE777-GGCRRETAWAC; disulfide 3-11 (inferred))”, the NIR emission peak in data set [1] was determined as 820 nm. Besides, the “fluorescent signal of cells incubated with probe” value is recorded as “strong NIR fluorescence at 820 nm” in data set [2] and “did not show any fluorescent signal” in the data set on undifferentiated MSCs [3].
In the case of `CC1(C)C(=CC=C2CCCC(C=CC3=[N+](CCCCS(=O)(=O)[O-])c4ccccc4C3(C)C)=C2Cl)N(CCCCS(=O)(=O)[O-])c2ccccc21.[Na+]` [IR783], in data set [4], the cell toxicity entry is reported as “minimal cell toxicity”.
For `CC1(C)C(=CC=C2CCCC(C=CC3=[N+](CCCCS(=O)(=O)[O-])c4ccccc4C3(C)C)=C2SCCC(=O)O)N(CCCCS(=O)(=O)[O-])c2ccccc21.[Na+]` [CyTE777], the NIR emission peak in data set [1] was 820 nm.
`O=C(O)CN(CC(=O)O)Cc1cc2c(cc1O)Oc1cc(O)c(CN(CC(=O)O)CC(=O)O)cc1C21OC(=O)c2ccccc21` [calcein]: the results for the “calcein staining (calcium deposition)” value (in data set [5]; in the data set on undifferentiated MSCs [6]) were “positive staining” and “No calcein staining”, respectively.
